This is an account of results in patent publication US20230241071A1, “COMBINATION TREATMENT OF LIVER DISORDERS” (Terns Pharmaceuticals, Inc., priority 2021, published 2023).

Each structure is given as a SMILES string.

Series [1] deals with T1, THR-β (Homo sapiens, UniProt P10828).
T1 sequence (P10828 1-461): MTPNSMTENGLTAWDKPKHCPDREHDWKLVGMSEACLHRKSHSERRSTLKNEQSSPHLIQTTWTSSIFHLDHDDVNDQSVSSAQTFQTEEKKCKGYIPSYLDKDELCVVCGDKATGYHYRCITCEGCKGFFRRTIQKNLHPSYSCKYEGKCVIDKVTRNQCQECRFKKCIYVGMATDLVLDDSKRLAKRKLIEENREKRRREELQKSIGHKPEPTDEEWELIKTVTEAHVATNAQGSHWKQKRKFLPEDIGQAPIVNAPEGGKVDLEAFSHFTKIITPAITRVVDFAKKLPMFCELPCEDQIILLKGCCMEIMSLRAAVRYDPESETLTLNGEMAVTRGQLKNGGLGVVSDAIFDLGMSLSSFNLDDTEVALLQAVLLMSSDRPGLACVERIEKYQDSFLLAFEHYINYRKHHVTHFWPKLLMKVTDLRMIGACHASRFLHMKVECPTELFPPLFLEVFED
Put plainly: Binding activity to the thyroxine receptor beta. As to conditions: for THR-α/-β selectivity: ratio of binding IC50; for IC50: read-out: IC50 THR-β binding force.

Series [2] is described as follows: Pharmacokinetic evaluation in SD rats. Format: in vivo, rat. The settings on record: 2.0 mg/kg intragastric; for half-life: male, rat, plasma, po.
Protocol: Drug Preparation: a certain amount of the drug was taken and added into a 2% Klucel LF+0.1% Tween 80 aqueous solution, to prepare a clear solution or a uniform suspension.
Dosage: SD rats were fasted overnight and given the drug by intragastric infusion at an administrated dose of 2 mg/kg and an administrated volume of 10 mL/kg each.
Operation: rats were dosed by intragastric infusion with the compounds. […] The heparinized sample tubes were then stored at −20° C., and the rats were allowed to eat food 2 h after the dosage.
Determination of contents of the compounds to be tested in the plasma of rats after intragastric infusion of the drugs at different concentrations: the plasma samples were thawed at room temperature, 50 μL each was taken and added into 130 μL of an internal standard working solution (1000 ng/mL, acetonitrile, tolbutamide), and the mixture was whirled for about 1 min and then centrifugated at 4° C. and 13000 rpm for 10 min. 50 μL of the supernatant was taken and mixed with 100 μL of 50% acetonitrile water, and then introduced for LC/MS/MS analysis.

For the molecule `N#Cc1nn(-c2cc(Cl)c(Oc3n[nH]c(=O)c4c3CCCC4)c(Cl)c2)c(=O)[nH]c1=O` [Compound 3], in series [1], the THR-α/-β selectivity is on record as >8.1 factor and the half-inhibitory concentration (IC50) is 1230 nM.
As to `CC1(C)CCc2c(Oc3c(Cl)cc(-n4cc(C#N)c(=O)[nH]c4=O)cc3Cl)n[nH]c(=O)c21` [Compound 6], in series [2], the Curve area worked out at 9242 ± 1245 ng·h/mL, the Time to peak was found to be 5.33 ± 1.15 h and the half-life was 5.14 ± 0.83 h.
With `N#Cc1nn(-c2cc(Cl)c(Oc3n[nH]c(=O)c4c(Cl)cccc34)c(Cl)c2)c(=O)[nH]c1=O` [Compound 7], in series [1], the THR-α/-β selectivity is listed as >6.80 factor and the concentration for half-maximal inhibition (IC50) was 1470 nM.
`O=c1cnn(-c2cc(Cl)c(Oc3n[nH]c(=O)c4ccccc34)c(Cl)c2)c(=O)[nH]1` [Compound 11]: the half-inhibitory concentration (IC50) in series [1] was found to be 262 nM.
For `CC(C)c1cc(Oc2c(Cl)cc(-n3nc(C#N)c(=O)[nH]c3=O)cc2Cl)n[nH]c1=O` [Reference compound, 2-[3,5-Dichloro-4-(5-isopropyl-6-oxo-1,6-dihydropyridazin-3-yloxy)phenyl]-3,5-dioxo-2,3,4,5-tetrahydro[1,2,4]triazine-6-carbonitrile, reference compound], in series [2], the Curve area stood at 12854 ± 961 ng·h/mL, the “Peak blood drug concentration” value turned out to be 1163 ± 97.1 ng/mL, the Time to peak worked out at 5.3 ± 1.15 h and the half-life was 3.53 ± 0.42 h.

What is called IC50 is the concentration needed to halve the response being measured. One may read the half-life as the time needed for the level to fall by half in the phase considered.
